From ChEMBL document CHEMBL4411308, “Design, synthesis and biological evaluation of novel benzo- and tetrahydrobenzo-[h]quinoline derivatives as potential DNA-intercalating antitumor agents” (Eur J Med Chem, 2019)

Test system: not listed separately
Assay: Cytotoxicity against mouse C26 cells assessed as inhibition of cell proliferation after 48 hrs by MTT assay
Format: functional, cell-based
Settings: C26, 48 h

SMILES | IC50
COc1ccc(-c2cc(C(=O)NCCN(C)C)c3ccc4c(c3n2)CCCC4)cc1OC | 12.7 µM
CN(C)CCNC(=O)c1cc(-c2ccccn2)nc2c1ccc1ccccc12 | 39.3 µM
CN(C)CCNC(=O)c1cc(-c2ccc(F)cc2)nc2c1ccc1ccccc12 | 5.29 µM
COc1ccc(-c2cc(C(=O)NCCN(C)C)c3ccc4c(c3n2)CCCC4)cc1 | 7.19 µM
CC(=O)Nc1ccc(-c2cc(C(=O)NCCN(C)C)c3ccc4ccccc4c3n2)cc1 | 7.71 µM
COc1cc(-c2cc(C(=O)NCCN(C)C)c3ccc4c(c3n2)CCCC4)cc(OC)c1OC | 11.6 µM

Test system: A549
Assay: Induction of apoptosis in human A549 cells assessed as early apoptotic cells at 1 uM after 24 hrs by Annexin V-FITC/propidium iodide staining based flow cytometry (reference value: 0.886%)
Format: functional
Settings: not given

SMILES | Activity
COc1cccc2c1C(=O)c1c(O)c3c(c(O)c1C2=O)C[C@@](O)(C(=O)CO)C[C@@H]3O[C@H]1C[C@H](N)[C@H](O)[C@H](C)O1 [DOXORUBICIN] | 2.19%

Test system: A549
Assay: Cytotoxicity against human A549 cells assessed as inhibition of cell proliferation after 48 hrs by MTT assay
Format: functional, cell-based
Settings: A549, 48 h

SMILES | IC50
COc1ccc(-c2cc(C(=O)NCCN(C)C)c3ccc4c(c3n2)CCCC4)cc1OC | 15.4 µM
CN(C)CCNC(=O)c1cc(-c2ccccn2)nc2c1ccc1ccccc12 | 56.2 µM
CN(C)CCNC(=O)c1cc(-c2ccc(F)cc2)nc2c1ccc1ccccc12 | 18.4 µM
COc1ccc(-c2cc(C(=O)NCCN(C)C)c3ccc4c(c3n2)CCCC4)cc1 | 4.96 µM
COc1cccc2c1C(=O)c1c(O)c3c(c(O)c1C2=O)C[C@@](O)(C(=O)CO)C[C@@H]3O[C@H]1C[C@H](N)[C@H](O)[C@H](C)O1 [DOXORUBICIN] | 0.766 µM
CC(=O)Nc1ccc(-c2cc(C(=O)NCCN(C)C)c3ccc4ccccc4c3n2)cc1 | 7.98 µM
COc1cc(-c2cc(C(=O)NCCN(C)C)c3ccc4c(c3n2)CCCC4)cc(OC)c1OC | 14.5 µM

Test system: A2780
Assay: Cytotoxicity against human A2780 cells assessed as inhibition of cell proliferation after 48 hrs by MTT assay
Format: functional, cell-based
Settings: A2780, 48 h

SMILES | IC50
COc1ccc(-c2cc(C(=O)NCCN(C)C)c3ccc4c(c3n2)CCCC4)cc1OC | 11.5 µM
CN(C)CCNC(=O)c1cc(-c2ccccn2)nc2c1ccc1ccccc12 | 61.2 µM
CN(C)CCNC(=O)c1cc(-c2ccc(F)cc2)nc2c1ccc1ccccc12 | 14.3 µM
COc1ccc(-c2cc(C(=O)NCCN(C)C)c3ccc4c(c3n2)CCCC4)cc1 | 1.65 µM
COc1cccc2c1C(=O)c1c(O)c3c(c(O)c1C2=O)C[C@@](O)(C(=O)CO)C[C@@H]3O[C@H]1C[C@H](N)[C@H](O)[C@H](C)O1 [DOXORUBICIN] | 0.123 µM
CC(=O)Nc1ccc(-c2cc(C(=O)NCCN(C)C)c3ccc4ccccc4c3n2)cc1 | 9.34 µM
COc1cc(-c2cc(C(=O)NCCN(C)C)c3ccc4c(c3n2)CCCC4)cc(OC)c1OC | 11 µM

Test system: A549
Assay: Induction of apoptosis in human A549 cells assessed as live cells at 1 uM after 24 hrs by Annexin V-FITC/propidium iodide staining based flow cytometry (reference value: 98.4%)
Format: functional
Settings: not given

SMILES | Activity
COc1cccc2c1C(=O)c1c(O)c3c(c(O)c1C2=O)C[C@@](O)(C(=O)CO)C[C@@H]3O[C@H]1C[C@H](N)[C@H](O)[C@H](C)O1 [DOXORUBICIN] | 31%

Test system: A549
Assay: Induction of apoptosis in human A549 cells assessed as necrotic cells at 1 uM after 24 hrs by Annexin V-FITC/propidium iodide staining based flow cytometry (reference value: 0.231%)
Format: functional
Settings: not given

SMILES | Activity
COc1cccc2c1C(=O)c1c(O)c3c(c(O)c1C2=O)C[C@@](O)(C(=O)CO)C[C@@H]3O[C@H]1C[C@H](N)[C@H](O)[C@H](C)O1 [DOXORUBICIN] | 55.8%

Test system: MCF7
Assay: Cytotoxicity against human MCF7 cells assessed as inhibition of cell proliferation after 48 hrs by MTT assay
Format: functional, cell-based
Settings: MCF7, 48 h

SMILES | IC50
COc1ccc(-c2cc(C(=O)NCCN(C)C)c3ccc4c(c3n2)CCCC4)cc1OC | 13.8 µM
CN(C)CCNC(=O)c1cc(-c2ccccn2)nc2c1ccc1ccccc12 | > 100 µM
CN(C)CCNC(=O)c1cc(-c2ccc(F)cc2)nc2c1ccc1ccccc12 | 16.6 µM
COc1ccc(-c2cc(C(=O)NCCN(C)C)c3ccc4c(c3n2)CCCC4)cc1 | 6.3 µM
COc1cccc2c1C(=O)c1c(O)c3c(c(O)c1C2=O)C[C@@](O)(C(=O)CO)C[C@@H]3O[C@H]1C[C@H](N)[C@H](O)[C@H](C)O1 [DOXORUBICIN] | 0.5 µM
CC(=O)Nc1ccc(-c2cc(C(=O)NCCN(C)C)c3ccc4ccccc4c3n2)cc1 | 4.05 µM
COc1cc(-c2cc(C(=O)NCCN(C)C)c3ccc4c(c3n2)CCCC4)cc(OC)c1OC | 5.62 µM

Test system: A549
Assay: Induction of apoptosis in human A549 cells assessed as late apoptotic cells at 1 uM after 24 hrs by Annexin V-FITC/propidium iodide staining based flow cytometry (reference value: 0.462%)
Format: functional
Settings: not given

SMILES | Activity
COc1cccc2c1C(=O)c1c(O)c3c(c(O)c1C2=O)C[C@@](O)(C(=O)CO)C[C@@H]3O[C@H]1C[C@H](N)[C@H](O)[C@H](C)O1 [DOXORUBICIN] | 11.1%
